From patent publication US12569454B2, “Nucleophilic chemicals useful in the treatment of cisplatin-induced sensory neuropathy and ototoxicity” (MONTEFIORE MEDICAL CENTER, priority 2018, dated 2026)

Columns and labels:
[1] = 400-600 mg/kg per day for 60 days; cited from earlier work
[2] = system: mouse; experiment: Mouse studies: open field, balance beam, functional observational battery, treadmill; format: in vivo; details: open field observations, treadmill analysis
[3] = acute animal toxicity; cited from earlier work
[4] = system: osteosarcoma (HOS); experiment: CisPt-induced cancer cell lethality; format: cell-based; details: for effect on ability of CisPt to kill cancer cells (IC75): co-incubated with graded CisPt, FIG. 5C
[5] = system: neuroblastoma (SH-SY5); experiment: CisPt-induced cancer cell lethality; format: cell-based
[6] = system: isolated mouse hepatocytes; experiment: Lethality of pre-formed enol-Pt complexes and Pt drugs; details: 4 hours exposure
Procedure: (§1) DRG cells and isolated mouse hepatocytes were then exposed to enol-Pt complexes for 4 hours and the respective changes in lethality were determined.

[7] = system: DRG cells; experiment: as above; details: 4 hours exposure
Procedure: as §1

[8] = system: glioblastoma (U87 MG); experiment: CisPt-induced cancer cell lethality; format: cell-based
[9] = system: freshly isolated mouse hepatocytes; experiment: CisPt effect on cell viability with or without protectant; format: cell-based; details: co-administration with CisPt, FIG. 3B
Description: (§2) The enol compounds investigated in this study were gavinol, NAHA, and THA and as a point of comparison, the protective properties of thiol-based compounds, N-acetyl-L-cysteine (NAC) and sodium thiosulfate (STS), were also investigated.

[10] = system: neonatal rat DRG cells; experiment: as above; format: cell-based; details: co-administration with CisPt, FIG. 3A
Description: as §2

[11] = pKa of nucleophilic carbon atoms; format: physicochemical
[12] = complexes pre-incubated 30 mins

Compound	toxicity in mouse studies [2]	protection against CisPt toxicity [9]	protection against CisPt toxicity [10]	effect on ability of CisPt to kill cancer cells (IC75) [4]	also measured
CC(=O)C1CCCC1=O (centres unmarked) [2-ACP, 2-acetylcyclopentanone]	not toxic				systemic toxicity [1]: low incidence of systemic toxicity; LD50 [3]: > 800 mg/kg
N.N.O=C([O-])C1(C(=O)[O-])CCC1.[Pt+2] [CarboPt, carboplatin]					cancer cell lethality ([4]; FIG. 6B, compared with CisPt): reduced cancer cell lethality; cancer cell lethality ([5]; FIG. 6C, compared with CisPt): reduced cancer cell lethality; cytotoxicity relative to that caused by CisPt or OxaliPt [6]: intermediate cytotoxicity; cytotoxicity (lethality) [6, 12]: substantial concentration-dependent DRG and hepatocyte lethality; cytotoxicity relative to that caused by CisPt or OxaliPt [7]: intermediate cytotoxicity; cytotoxicity (lethality) [7, 12]: substantial concentration-dependent DRG and hepatocyte lethality; cancer cell lethality ([8]; FIG. 6A, compared with CisPt): reduced cancer cell lethality
CC(=O)N[C@@H](CS)C(=O)O [NAC, N-acetyl-L-cysteine, reference compound]		only modest protection	only modest protection		
CC(=O)Nc1cc(O)c(C(C)=O)c(O)c1 [NAHA, 4-N-acetyl-2,6-dihydroxyacetaphenone]	not toxic	substantial cryoprotection	substantial cryoprotection	significantly lowered the respective IC75S	pKa [11]: 7.9
O=S([O-])([O-])=S.[Na+].[Na+] [STS, sodium thiosulfate, reference compound]		only modest protection	only modest protection	did not modify CisPt-induced cancer cell toxicity	effect on ability of CisPt to kill cancer cells (IC75) ([5]; co-incubated with graded CisPt, FIG. 5A): did not modify CisPt-induced cancer cell toxicity; effect on ability of CisPt to kill cancer cells (IC75) ([8]; co-incubated with graded CisPt, FIG. 5B): did not modify CisPt-induced cancer cell toxicity
CC(=O)c1c(O)cc(O)cc1O [THA, 2′,4′,6′-trihydroxyacetophenone]	not toxic	substantial cryoprotection	substantial cryoprotection		
CC(=O)c1c(O)cc(NC(=O)C2CCCC2=O)cc1O (centres unmarked) [gavinol, N-(4-acetyl-3,5-dihydroxyphenyl)-2-oxocyclopentane-1-carboxamide]	not toxic	substantial cryoprotection	substantial cryoprotection	significantly lowered the respective IC75S	
